Results published in US20260124146A1, “MODIFIED RELEASE TOLCAPONE FORMULATIONS” (Corino Therapeutics, Inc., priority 2022, published 2026).
≈ marks a conversion by molar mass, not a printed value. Where two headings read alike, the source gives them in different places.

Assays:
TTR = details: cited from earlier work
[1] = solubility assessment of micronized tolcapone in buffers (HPLC assay and visual observation); assay type: physicochemical; details: for solubility at 1 h / solubility at 2 h: buffer, thermodynamic from solid
Method: Two aliquots of each sample were taken at 1 and 2 hour time points. One aliquot was used for Assay and Related Substances analysis by reverse phase HPLC and the other aliquot was used to obtain microscopic images using 5.5× magnification, polarised and non-polarised light. In addition, representative photograph of each n=1 sample at 1 hour time point were taken for information. pH of each sample was measured at 2 hour time point.

[2] = safety evaluation in the Phase I study; assay type: in vivo, human; details: single oral doses, healthy subjects
Source text: Treatment-emergent adverse events (TEAEs), serious adverse events (SAEs), vital signs, ECG measurements (triplicate), physical examination, standard laboratory evaluations.

## Cc1ccc(C(=O)c2cc(O)c(O)c([N+](=O)[O-])c2)cc1 [tolcapone]
TTR; 100 mg three times daily 14 days then 200 mg three times daily 14 days, oral, hATTR-leptomeningeal patients, plasma
  overall mean increase in plasma TTR tetramer concentration: 55%
TTR; same regimen, CSF, measured under semi-denaturing conditions
  mean decrease of monomeric TTR concentration in CSF: 48%
[1]; acidic conditions
  solubility (in words): poorly soluble
[1]; at about pH 6.8
  solubility (in words): improved solubility
[1]; pH 2, aqueous buffer, pH 2.0, 1 Hour, replicates N=1, N=2, read-out: Assay (solubility by HPLC)
  solubility at 1 h: 23 µg/mL (≈ 84.2 µM)
[1]; pH 2, aqueous buffer, pH 2.0, 1 Hour, read-out: Mean Assay (solubility by HPLC)
  solubility at 1 h: 20 µg/mL (≈ 73.2 µM)
[1]; pH 2, aqueous buffer, pH 2.0, 2 Hour, replicates N=1, N=2, read-out: Assay (solubility by HPLC)
  solubility at 2 h: 20 µg/mL (≈ 73.2 µM)
[1]; pH 2, aqueous buffer, pH 2.0, 2 Hour, read-out: Mean Assay (solubility by HPLC)
  solubility at 2 h: 21 µg/mL (≈ 76.9 µM)
[1]; pH 4.5, aqueous buffer, pH 4.5, 1 Hour, replicates N=1, N=2, read-out: Assay (solubility by HPLC)
  solubility at 1 h: 45 µg/mL (≈ 165 µM)
[1]; pH 4.5, aqueous buffer, pH 4.5, 1 Hour, read-out: Mean Assay (solubility by HPLC)
  solubility at 1 h: 45 µg/mL (≈ 165 µM)
[1]; pH 4.5, aqueous buffer, pH 4.5, 2 Hour, replicates N=1, N=2, read-out: Assay (solubility by HPLC)
  solubility at 2 h: 52 µg/mL (≈ 190 µM)
[1]; pH 4.5, aqueous buffer, pH 4.5, 2 Hour, read-out: Mean Assay (solubility by HPLC)
  solubility at 2 h: 51 µg/mL (≈ 187 µM)
[1]; pH 5.5, aqueous buffer, pH 5.5, 1 Hour, replicates N=1, N=2, read-out: Assay (solubility by HPLC)
  solubility at 1 h: 258 µg/mL (≈ 944 µM)
[1]; pH 5.5, aqueous buffer, pH 5.5, 1 Hour, read-out: Mean Assay (solubility by HPLC)
  solubility at 1 h: 248 µg/mL (≈ 908 µM)
[1]; pH 5.5, aqueous buffer, pH 5.5, 2 Hour, replicates N=1, N=2, read-out: Assay (solubility by HPLC)
  solubility at 2 h: 283 µg/mL (≈ 1040 µM)
[1]; pH 5.5, aqueous buffer, pH 5.5, 2 Hour, read-out: Mean Assay (solubility by HPLC)
  solubility at 2 h: 275 µg/mL (≈ 1010 µM)
[1]; pH 6.8, aqueous buffer, pH 6.8, 1 Hour, replicates N=1, N=2, read-out: Assay (solubility by HPLC)
  solubility at 1 h: 920 µg/mL (≈ 3370 µM)
[1]; pH 6.8, aqueous buffer, pH 6.8, 1 Hour, read-out: Mean Assay (solubility by HPLC)
  solubility at 1 h: 1280 µg/mL (≈ 4690 µM)
[1]; pH 6.8, aqueous buffer, pH 6.8, 2 Hour, replicates N=1, N=2, read-out: Assay (solubility by HPLC)
  solubility at 2 h: 905 µg/mL (≈ 3310 µM)
[1]; pH 6.8, aqueous buffer, pH 6.8, 2 Hour, read-out: Mean Assay (solubility by HPLC)
  solubility at 2 h: 1030 µg/mL (≈ 3780 µM)
[1]; pH 7.4, aqueous buffer, pH 7.4, 1 Hour, replicates N=1, N=2, read-out: Assay (solubility by HPLC)
  solubility at 1 h: 473 µg/mL (≈ 1730 µM)
[1]; pH 7.4, aqueous buffer, pH 7.4, 1 Hour, read-out: Mean Assay (solubility by HPLC)
  solubility at 1 h: 463 µg/mL (≈ 1690 µM)
[1]; pH 7.4, aqueous buffer, pH 7.4, 2 Hour, replicates N=1, N=2, read-out: Assay (solubility by HPLC)
  solubility at 2 h: 489 µg/mL (≈ 1790 µM)
[1]; pH 7.4, aqueous buffer, pH 7.4, 2 Hour, read-out: Mean Assay (solubility by HPLC)
  solubility at 2 h: 501 µg/mL (≈ 1830 µM)
[1]; pH 2.0, 1 Hour, replicates N=1, N=2
  Assay (solubility by HPLC): 18 µg/mL
[1]; pH 2.0, 2 Hour, replicates N=1, N=2
  Assay (solubility by HPLC): 23 µg/mL
[1]; pH 4.5, 2 Hour, replicates N=1, N=2
  Assay (solubility by HPLC): 51 µg/mL
[1]; pH 5.5, 1 Hour, replicates N=1, N=2
  Assay (solubility by HPLC): 237 µg/mL
[1]; pH 5.5, 2 Hour, replicates N=1, N=2
  Assay (solubility by HPLC): 267 µg/mL
[1]; pH 6.8, 1 Hour, replicates N=1, N=2
  Assay (solubility by HPLC): 1644 µg/mL
[1]; pH 6.8, 2 Hour, replicates N=1, N=2
  Assay (solubility by HPLC): 1163 µg/mL
[1]; pH 7.4, 1 Hour, replicates N=1, N=2
  Assay (solubility by HPLC): 452 µg/mL
[1]; pH 7.4, 2 Hour, replicates N=1, N=2
  Assay (solubility by HPLC): 513 µg/mL
[2]
  safety and tolerability: safe and well tolerated
